Assays:
[1] = test system: WERI-Rb1 orthotopic RB model; settings: mouse, in vivo
[2] = test system: WERI-Rb1 orthotopic RB model; settings: mouse, in vivo; remark: listed apart in the source
[3] = mouse, in vivo
[4] = test system: WERI-Rb1 orthotopic RB model; settings: mouse, in vivo; remark: listed apart in the source
retinoblastoma = settings: human, in vivo; cited from earlier work
[5] = test system: WERI-Rb1 orthotopic RB model; settings: mouse, in vivo; remark: listed apart in the source

N[C@@H](Cc1ccc(N(CCCl)CCCl)cc1)C(=O)O [Melphalan]
TUNEL positivity relative to the Control group [1]: 1.77 fold | decrease of Ki-67 expression relative to the control [2]: about 30.3% | alanine aminotransferase and aspartate aminotransferase levels [3]: did not significantly deviate from the Control group | body weight during treatment [3]: no significant difference | increase of p53 expression relative to the Control group [4]: 71% | overall globe salvage rate (retinoblastoma): 66.4% | reduction of tumor burden (tumor area) [5]: 82.6%

N=C(N)NC(=O)c1nc(Cl)c(N)nc1N [amiloride]
FITC-labeled Pri-MP uptake (Endocytosis species) alone or with added inhibitor (Y79): 29.8% | inhibitory effect on Pri-MP uptake (Y79): 64.5% | FITC-labeled Pri-MP uptake (Endocytosis species) alone or with added inhibitor (WERI-Rb1): 22.9% | inhibitory effect on Pri-MP uptake (WERI-Rb1): 73.0%

CN(C)CCCN1c2ccccc2Sc2ccc(Cl)cc21 [chlorpromazine]
FITC-labeled Pri-MP uptake (Endocytosis species) alone or with added inhibitor (Y79): 87.6% | reduction of Pri-MP uptake relative to vehicle controls (RB cells): < 10% | FITC-labeled Pri-MP uptake (Endocytosis species) alone or with added inhibitor (WERI-Rb1): 87.0%

C=C1[C@@H](C)[C@H]2[C@H](Cc3ccccc3)NC(=O)[C@]23[C@H](OC(C)=O)/C=C/[C@@](C)(O)C(=O)[C@@H](C)C/C=C/[C@H]3[C@@H]1O [cytochalasin D]
FITC-labeled Pri-MP uptake (Endocytosis species) alone or with added inhibitor (Y79): 22.3% | inhibitory effect on Pri-MP uptake (Y79): 72.4% | FITC-labeled Pri-MP uptake (Endocytosis species) alone or with added inhibitor (WERI-Rb1): 38.4% | inhibitory effect on Pri-MP uptake (WERI-Rb1): 55.4%

O=C(N/N=C/c1ccc(O)c(O)c1)c1cc2ccccc2cc1O [dynasore]
FITC-labeled Pri-MP uptake (Endocytosis species) alone or with added inhibitor (Y79): 73.8% | reduction of Pri-MP uptake relative to vehicle controls (RB cells): < 10% | FITC-labeled Pri-MP uptake (Endocytosis species) alone or with added inhibitor (WERI-Rb1): 70.1%

CCCCC[C@@H](O)[C@H]1C(=O)O[C@H](C)[C@@H](O)/C=C/C=C/C=C/C=C/C=C(\C)[C@@H](O)C[C@H](O)C[C@H](O)C[C@H](O)C[C@H](O)C[C@H](O)C[C@@H]1O [filipin]
FITC-labeled Pri-MP uptake (Endocytosis species) alone or with added inhibitor (Y79): 78.6% | reduction of Pri-MP uptake relative to vehicle controls (RB cells): < 10% | FITC-labeled Pri-MP uptake (Endocytosis species) alone or with added inhibitor (WERI-Rb1): 84.8%

O=c1c(-c2ccc(O)cc2)coc2cc(O)cc(O)c12 [genistein]
FITC-labeled Pri-MP uptake (Endocytosis species) alone or with added inhibitor (Y79): 85.2% | FITC-labeled Pri-MP uptake (Endocytosis species) alone or with added inhibitor (WERI-Rb1): 87.0%

From PMC12510174 (International Journal of Biological Sciences, 2025)
